Measured values as given in US20210116467A1, “DIABETES-RELATED BIOMARKERS AND TREATMENT OF DIABETES-RELATED CONDITIONS” (priority 2015, published 2021).

What follows are compounds tested on GLP1 (assay: GLP1 production induced by treatment with bile acids (immunofluorescence staining of TGR5 and GLP1 in CCL-241 cells)). Details: CCL-241 human small intestinal normal epithelial cells; 100 μM bile acid; compared to wild type (WT) and DMSO controls; FIG. 13.
Format: cell-based
Method: Several bile acids were tested for their ability to increase production of GLP-1. Without being bound by theory, the inventor believes that compounds which increase the production of GLP-1 provide an anti-diabetic effect.
CCL-241, a human small intestinal normal epithelial cell were treated with 100 μM of different bile acids and compared to that of wild type (WT) and DMSO treatment as controls. The expression of TGR5 and GLP1 were detected by Immunofluorescence staining.
In the case of `C[C@H](CCC(=O)O)[C@H]1CC[C@H]2[C@@H]3C[C@H](O)[C@@H]4C[C@H](O)CC[C@]4(C)[C@H]3CC[C@]12C` [HDCA, Hyodeoxycholic acid], the “GLP1-promotion effect (expression of GLP1 detected by immunofluorescence staining)” value (“GLP1-promotion effect” below) is reported as “strongest GLP1-promotion effect”. With `C[C@H](CCC(=O)NCCS(=O)(=O)[O-])[C@H]1CC[C@H]2[C@@H]3C[C@H](O)[C@@H]4C[C@H](O)CC[C@]4(C)[C@H]3CC[C@]12C.[Na+]` [THDCA, Taurohyodeoxycholic acid] the “GLP1-promotion effect” value was “strongest GLP1-promotion effect”. With `O=C(O)C(Cl)(Cl)Cl` [TCA] the “GLP1-promotion effect” value was “substantial GLP-1 promotion effect”. In the case of `C[C@H](CCC(=O)O)[C@H]1CC[C@H]2[C@@H]3[C@H](O)[C@H](O)[C@@H]4C[C@H](O)CC[C@]4(C)[C@H]3CC[C@]12C` [HCA, Hyocholic acid], the “GLP1-promotion effect” value is reported as “strongest GLP1-promotion effect”. With `C[C@H](CCC(=O)NCC(=O)O)[C@H]1CC[C@H]2[C@@H]3C[C@H](O)[C@@H]4C[C@H](O)CC[C@]4(C)[C@H]3CC[C@]12C` [GHDCA, Glycohyodeoxycholic acid] the “GLP1-promotion effect” value was “strongest GLP1-promotion effect”. For `C[C@H](CCC(=O)O)[C@H]1CC[C@H]2[C@@H]3CC[C@@H]4C[C@H](O)CC[C@]4(C)[C@H]3C[C@H](O)[C@]12C` [DCA], the “GLP1-promotion effect” value was “substantial GLP-1 promotion effect”.
